# According to US20030232986A1, “Inhibitors of caspases” (Vertex Pharmaceuticals Incorporated, priority 1998, published 2003):
# pIC50, pKi: −log10 of the molar value. Where a SMILES comes first, the peptide text is derived from it. The star is where a group is joined. Bz = O=C(c1ccccc1)*
# Assays:
# [1] = tested on: Human whole blood, IL-1β production; assay: Whole blood assay for IL-1β production; assay type: cell-based; conditions: LPS-stimulated whole blood, IL-1β by ELISA
# In short: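 LPS-stimulated (5.0 ng/ml final) human whole blood incubated with test compound in saline (or plasma/PBS-5% DMSO for hydrophobic compounds) at 30° C for 16-18 hr. Plasma IL-1β then measured by ELISA at 1:200 dilution, against no-LPS, no-inhibitor and vehicle controls.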
# [2] = Single pass perfusion in rat: GI wall and liver metabolism, biliary excretion; assay type: in vitro ADME; conditions: for f (g) Xf (h): GI wall metabolism f(g) x liver metabolism f(h)
# Procedure: Single pass perfusion studies in rat were performed to assess gastrointestinal (GI) wall metabolism (f(g)), liver metabolism (f(h)), and biliary excretion. The method used has been described in Pang, C. S., J. Pharmacol. Exp. Therapeutics, 333, pp. 788-798 (1984).
# Caspase-8 = Caspase-8 (Homo sapiens, UniProt Q14790); assay: Caspase-8 enzyme inhibition (Ki); assay type: biochemical; conditions: substrate Ac-DEVD-pNA 80 μM, 37° C.
# Chain of Caspase-8 (Q14790 217-374 limits assumed): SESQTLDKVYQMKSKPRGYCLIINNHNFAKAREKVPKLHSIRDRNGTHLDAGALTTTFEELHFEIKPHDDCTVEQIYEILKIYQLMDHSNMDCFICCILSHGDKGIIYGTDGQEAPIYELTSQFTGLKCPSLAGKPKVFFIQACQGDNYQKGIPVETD
# Chain of Caspase-8 (Q14790 385-479 limits assumed): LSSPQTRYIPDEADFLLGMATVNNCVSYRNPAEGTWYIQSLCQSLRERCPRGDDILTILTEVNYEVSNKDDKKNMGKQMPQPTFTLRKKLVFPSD
# Procedure: (§1) Ki values for test compounds with the various caspases were obtained by the method of Margolin et al. (J. Biol. Chem., 272 pp. 7223-7228 (1997)). Assays were performed in 10 mM Tris (Sigma Corp, St Louis Mo.) pH 7.5, 1 mM Dithiothreitol (DTT, Research Organic INC, Cleveland, Ohio) and 0.1% CHAPS (Pierce, Rockford Ill.) at 37° C. For caspase-3, a solution of 8% glycerol was added to the assay buffer to improve enzyme stability. A 65 μL aliquot of the assay buffer and 5 μL aliquot of the appropriate dilutions of inhibitor in DMSO where pipetted into a 96 well plate, treated with 10 μL of caspase, then diluted in assay buffer (0.5-40 nM active protein by active site titration). A control containing DMSO but no compound was included for each determination. The plates were then incubated for 15 minutes at 37° C., before addition of the appropriate substrate (20 μL, final concentration 1-4×KM, final assay volume 100 μL) to initiate the reaction. Reaction rates were measured at 37° C. either by following the time dependant increase in absorbance at 405 nm (for the pNA substrates) or in fluorescence (Ex 390, Em 460) (for the AMC substrates). The rates obtained were plotted against inhibitor concentration and the data fit to the Morrison tight-binding equation for competitive inhibitors (Morrison, J. F., Biochem. Biophys. Acta, 185 pp. 269-286 (1969)). The substrates used for the individual assays were as follows:
# Caspase-8 Ac-DEVD-pNA (Bachem, King of Prussia, Pa.) (final concentration in assay 80 μM).
# Caspase-3 = biological target: T1, Caspase-3 (Homo sapiens, UniProt P42574); assay: Caspase-3 enzyme inhibition (Ki); assay type: biochemical; conditions: substrate Ac-DEVD-pNA 60 μM, 8% glycerol in buffer, 37° C.
# T1 sequence (P42574 29-175 limits assumed): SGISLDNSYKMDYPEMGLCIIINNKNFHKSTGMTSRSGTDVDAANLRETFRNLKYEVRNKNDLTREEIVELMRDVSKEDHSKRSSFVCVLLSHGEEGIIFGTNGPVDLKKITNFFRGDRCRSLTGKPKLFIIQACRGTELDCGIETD
# T1 sequence (P42574 176-277 limits assumed): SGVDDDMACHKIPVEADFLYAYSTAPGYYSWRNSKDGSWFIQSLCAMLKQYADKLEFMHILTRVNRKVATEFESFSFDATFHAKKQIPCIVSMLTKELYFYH
# Procedure: as §1
# Caspase-3 Ac-DEVD-pNA (Bachem, King of Prussia, Pa.) (final concentration in assay, 60 μM)
Structure (SMILES),pIC50 [1],Biliary Excretion [2],f (g) Xf (h) [2],pKi (Caspase-8),pKi (Caspase-3)
COCC(=O)N1CCN(C(=O)[C@H](C)NC(=O)c2ccc(N)c(Cl)c2)[C@H](C(=O)N[C@H](C=O)CC(=O)O)C1 [Example 18f],5.12 to 5.60,A (category “A” indicates <5%),D (Category “D” indicates >0.75),,
CC(C)[C@H](NC(=O)c1nccc2ccccc12)C(=O)N1CCC[C@H]1C(=O)N[C@H](C=O)CC(=O)O [Example 5c],> 5.60,C (Category “C” indicates >10%),A (category “A” indicates <0.25),,
"CC(=O)Nc1ccc(C(=O)N[C@@H](C)C(=O)N2CCC[C@H]2C(=O)N[C@H](C=O)CC(=O)O)cc1Cl [Example 122f, 3-({1-[2-(4-Acetylamino-3-chloro-benzoylamino)-propionyl]-pyrrolidine-2-carbonyl}-amino)-4-oxo-butyric acid]",> 5.60,,,6.00 to 8.00,< 6.00
C[C@H](NC(=O)c1ccc(N)c(Cl)c1)C(=O)N1CC(F)(F)C[C@H]1C(=O)N[C@H](C=O)CC(=O)O [Example 27a],> 5.60,A (category “A” indicates <5%),C (Category “C” indicates 0.5-0.75),,
"Cc1cc(C(=O)N[C@H](C(=O)N2CCCC2C(=O)N[C@H](C=O)CC(=O)O)C(C)C)cc(C)c1O (stereo partly drawn) [Example 65, 3-({l-[2-(4-Hydroxy-3,5-dimethyl-benzoyiamino)-3-methyl-butyryl]-pyrrolidine-2-carbonyl}-amino)-4-oxo-butyric acid]",> 5.60,C (Category “C” indicates >10%),B (Category “B” indicates 0.25-0.49),,
"COc1ccc(C(=O)NC(C(=O)N2CCCC2C(=O)NC(C=O)CC(=O)O)C(C)(C)C)cc1 (centres unmarked) [Example 69, 3-({1-[2-(4-Methoxy-benzoylamino)-3,3-dimethyl-butyryl]-pyrrolidine-2-carbonyl}-amino)-4-oxo-butyric acid]",> 5.60,A (category “A” indicates <5%),C (Category “C” indicates 0.5-0.75),6.00 to 8.00,< 6.00
COc1ccc(C(=O)NC(C(=O)N2N=C(C(C)(C)C)SC2C(=O)NC(C=O)CC(=O)O)C(C)C)cc1 (centres unmarked) [Example 46b],5.12 to 5.60,C (Category “C” indicates >10%),B (Category “B” indicates 0.25-0.49),,6.00 to 8.00
CC(C)[C@H](NC(=O)c1cc(Cl)c(O)c(Cl)c1)C(=O)N1CCC[C@H]1C(=O)N[C@H](C=O)CC(=O)O [Example 5m],> 5.60,C (Category “C” indicates >10%),B (Category “B” indicates 0.25-0.49),,
Cc1cc(C(=O)N[C@@H](C)C(=O)N2CCC[C@H]2C(=O)N[C@H](C=O)CC(=O)O)cc(C)c1O [Example 7c],> 5.60,,,< 6.00,< 6.00
C[C@H](NC(=O)c1cccc2c1-c1ccccc1C2=O)C(=O)N1CCC[C@H]1C(=O)N[C@H](C=O)CC(=O)O [Example 122a],> 5.60,A (category “A” indicates <5%),B (Category “B” indicates 0.25-0.49),,
CSC[C@H](NC(=O)c1nccc2ccccc12)C(=O)N1CCC[C@H]1C(=O)N[C@H](C=O)CC(=O)O [Example 20g],> 5.60,A (category “A” indicates <5%),B (Category “B” indicates 0.25-0.49),,
"COc1ccc(C(=O)NC(C(=O)N2CCCC2C(=O)NC(C=O)CC(=O)O)C(C)C)cc1 (centres unmarked) [Example 57, 3-({1-[2-(4-Methoxy-benzoylamino)-3-methyl-butyryl]-pyrrolidine-2-carbonyl}-amino)-4-oxo-butyric acid]",< 5.12,B (Category “B” indicates 5-10%),B (Category “B” indicates 0.25-0.49),,
"COc1c(Cl)cc(C(=O)N[C@@H](C)C(=O)N2CCC[C@H]2C(=O)N[C@H](C=O)CC(=O)O)cc1Cl [Example 122c, 3-({1-[2-(3,5-Dichloro-4-methoxy-benzoylamino)-propionyl]-pyrrolidine-2-carbonyl}-amino)-4-oxo-butyric acid]",5.12 to 5.60,B (Category “B” indicates 5-10%),C (Category “C” indicates 0.5-0.75),,
CC(C)[C@H](NC(=O)c1cccc2c1-c1ccccc1C2=O)C(=O)N1CCC[C@H]1C(=O)N[C@H](C=O)CC(=O)O [Example 5k],5.12 to 5.60,A (category “A” indicates <5%),B (Category “B” indicates 0.25-0.49),,
CC[C@H](NC(=O)c1cc(Cl)c(O)c(Cl)c1)C(=O)N1CCC[C@H]1C(=O)N[C@H](C=O)CC(=O)O [Example 20m],> 5.60,,,,
"C[C@H](NC(=O)c1cc(Cl)c(O)c(Cl)c1)C(=O)N1CCC[C@H]1C(=O)N[C@H](C=O)CC(=O)O [Example 122k, 3-({1-[2-(3,5-Dichloro-4-hydroxy-benzoylamino)-propionyl]-pyrrolidine-2-carbonyl}-amino)-4-oxo-butyric acid]",> 5.60,,,6.00 to 8.00,< 6.00
O=C[C@H](CC(=O)O)NC(=O)[C@@H]1CCCN1C(=O)[C@H](Cc1cccnc1)NC(=O)c1nccc2ccccc12 [Example 20f],> 5.60,C (Category “C” indicates >10%),B (Category “B” indicates 0.25-0.49),,
C[C@H](NC(=O)[C@@H](NC(=O)c1nccc2ccccc12)C(C)(C)C)C(=O)N[C@H](C=O)CC(=O)O [Example 29g],> 5.60,B (Category “B” indicates 5-10%),B (Category “B” indicates 0.25-0.49),,
CC(C)[C@H](NC(=O)c1nccc2ccccc12)C(=O)N1CC(c2ccccc2)[C@H]1C(=O)N[C@H](C=O)CC(=O)O (some centres unmarked) [Example 24c],5.12 to 5.60,C (Category “C” indicates >10%),A (category “A” indicates <0.25),,
CS(=O)(=O)CC[C@H](NC(=O)c1nccc2ccccc12)C(=O)N1CCC[C@H]1C(=O)N[C@H](C=O)CC(=O)O [Example 20h],> 5.60,,,,
CC(C)[C@H](NC(=O)c1nccc2ccccc12)C(=O)N1C2CCCCC2C[C@H]1C(=O)N[C@H](C=O)CC(=O)O (some centres unmarked) [Example 26e],> 5.60,B (Category “B” indicates 5-10%),B (Category “B” indicates 0.25-0.49),,
CC(C)[C@H](NC(=O)c1ccccc1)C(=O)N1CC(c2ccccc2)[C@H]1C(=O)N[C@H](C=O)CC(=O)O (some centres unmarked) [Example 24a],5.12 to 5.60,A (category “A” indicates <5%),C (Category “C” indicates 0.5-0.75),,< 6.00
CC(C)[C@H](NC(=O)c1nccc2ccccc12)C(=O)N1[C@@H](c2ccccc2)CC[C@H]1C(=O)N[C@H](C=O)CC(=O)O [Example 26f],5.12 to 5.60,C (Category “C” indicates >10%),A (category “A” indicates <0.25),,
CC(C)[C@H](NC(=O)c1nccc2ccccc12)C(=O)N1CC[C@H](C)[C@H]1C(=O)N[C@H](C=O)CC(=O)O [Example 26c],5.12 to 5.60,C (Category “C” indicates >10%),A (category “A” indicates <0.25),,
CC(C)[C@H](NC(=O)c1ccccc1)C(=O)N[C@@H](C)C(=O)N[C@H](C=O)CC(=O)O [Example 29a] (Bz-Val-Ala-Asp-aldehyde),> 5.60,,,,< 6.00
